Earlier results in US20080176830A1, “Compounds, Compositions, and Methods” (priority 2005, published 2008).

System: A549 cells
Conditions: data provided by National Cancer Institute

Row | SMILES | GI50
1 | CC(=O)O[C@H]1C(=O)[C@@]2(C)[C@H]([C@H](OC(=O)c3ccccc3)[C@]3(O)C[C@H](OC(=O)[C@H](O)[C@@H](NC(=O)c4ccccc4)c4ccccc4)C(C)=C1C3(C)C)[C@]1(OC(C)=O)CO[C@@H]1C[C@@H]2O [paclitaxel] | 4 nM
2 | COc1cccc2c1C(=O)c1c(O)c3c(c(O)c1C2=O)C[C@@](O)(C(=O)CO)C[C@@H]3O[C@H]1C[C@H](N)[C@H](O)[C@H](C)O1 [doxorubicin] | 63 nM
3 | NC(=O)NO [hydroxyurea] | 500000 nM
4 | O=c1[nH]cc(F)c(=O)[nH]1 [5-fluorouracil] | 1000 nM
